{"source": "patent US5510247A", "about": "“Centrifugal multiphase systems and method for using the same” (University of Pittsburgh, priority 1993, dated 1996)", "key": {"[1]": {"molecular_target": "T1, phosphotriesterase (Brevundimonas diminuta, UniProt P0A434)", "assay": "Batch Michaelis-Menten kinetics of phosphotriesterase with pesticide substrates in Tween 85 reversed micelles and in Tris-HCl buffer", "type": "biochemical", "design": "made in house", "method": "Solutions of micelles were prepared in the following manner: 8 ml isopropanol was added to 13 g Tween 85 and Hexane was added to achieve a mixture of 50 ml. Water or Tris-HCl buffer (0.05M, pH 7.0) and hexane were added to this mixture to yield the desired system. […] Appropriate volumes were mixed to fill 1 ml quartz cuvettes, and the reaction was followed in a spectrophotometer. (Perkin Elmer Lambda 3). Michaelis-Menten kinetic constants (discussed below) were found by non-linear regression analysis of the initial rate data.\nEnzymes function as catalysts in solution by lowering the free energy of the transition state in a reaction. Like conventional catalysts, the enzyme facilitates the reaction, but is in no way altered, so that when the reaction is completed, it is available to catalyze the conversion of more substrate molecules. When a single substrate is converted to product, the schematic of the reaction can be written [drawing 2] where S and P are substrate and product, respectively, and ES is an enzyme substrate complex. When the substrate concentration is much higher than the enzyme concentration, the enzyme is said to obey the Michaelis-Menten relationship describing the reaction rate, [formula] where (E) is the total enzyme concentration and (S) is the initial substrate concentration. KM is the saturation constant, and is a function of the individual rate constants, [formula] KM has the physical meaning as the substrate concentration which yields half the maximal reaction rate (Vmax), which is dependent on the catalytic rate constant of the chemcial step, k2, as well as the enzyme concentration,\nInitial experiments were performed using paraoxon, parathion and methyl paraoxon. The effect of micelle size, pH, ionic strength and temperature have been investigated."}, "[2]": {"molecular_target": "T1, phosphotriesterase", "assay": "Enzyme activity for paraoxon degradation and enzyme partitioning in the two-phase organic/reverse micelle system (Tween rich heavy phase, excess hexane phase)", "type": "biochemical", "design": "made in house", "details": "Tween rich heavy phase of the organic/reverse micelle two-phase system", "source_text": "As set forth above, if the products of the reaction are more soluble in the organic phase than in an aqueous phase, it is preferable to choose a system with an excess of organic phase to facilitate product removal. Such a region can be found, for example, in FIG. 2C in the lower left hand corner of the phase diagram. This region is illustrated in FIG. 12 as the shaded area.\nIn this region, close to the single phase region, reverse micelles form with an excess hexane phase which has a low concentration (<15 mM) of Tween with adsorbed water."}, "[3]": {"molecular_target": "T1, phosphotriesterase"}, "[4]": {"details": "Tris-HCl buffer, 10% Methanol added to enhance solubility"}}, "data": [{"smiles": "CCOP(=O)(OCC)Oc1ccc([N+](=O)[O-])cc1", "note": "[PARAOXON, Paraoxon]", "values": [{"measurement": "Vmax", "setting": "[1]; Tris-HCl buffer", "value": "1.686 ± 42", "unit": "µmol/mg/min"}, {"measurement": "kcat", "setting": "[1]; Tris-HCl buffer", "value": "1,110 ± 28 s^-1"}, {"measurement": "kcat /KM", "setting": "[1]; Tris-HCl buffer", "value": "58,421 mM^-1 s^-1"}, {"measurement": "Km", "setting": "[1]; micelles, Wo 6.9", "value": "14.3 ± 3.4", "unit": "mM"}, {"measurement": "Vmax", "setting": "[1]; micelles, Wo 6.9", "value": "107 ± 12", "unit": "µmol/mg/min"}, {"measurement": "kcat", "setting": "[1]; micelles, Wo 6.9", "value": "70.3 ± 7.9", "unit": "s⁻¹"}, {"measurement": "kcat /KM", "setting": "[1]; micelles, Wo 6.9", "value": 4.9, "unit": "mM⁻¹ s⁻¹"}, {"measurement": "Km", "setting": "[1]; micelles, Wo 30", "value": "28.9 ± 3.8", "unit": "mM"}, {"measurement": "Vmax", "setting": "[1]; micelles, Wo 30", "value": "430 ± 28", "unit": "µmol/mg/min"}, {"measurement": "kcat", "setting": "[1]; micelles, Wo 30", "value": "283 ± 18.4", "unit": "s⁻¹"}, {"measurement": "kcat /KM", "setting": "[1]; micelles, Wo 30", "value": 9.8, "unit": "mM⁻¹ s⁻¹"}, {"measurement": "Km", "setting": "[1]; micelles, Wo 45", "value": "31.2 ± 8.2", "unit": "mM"}, {"measurement": "Vmax", "setting": "[1]; micelles, Wo 45", "value": "556 ± 80", "unit": "µmol/mg/min"}, {"measurement": "kcat", "setting": "[1]; micelles, Wo 45", "value": "366 ± 53", "unit": "s⁻¹"}, {"measurement": "kcat /KM", "setting": "[1]; micelles, Wo 45", "value": 11.8, "unit": "mM⁻¹ s⁻¹"}, {"measurement": "Km", "setting": "[1]; micelles, Wo 69", "value": "34.8 ± 9", "unit": "mM"}, {"measurement": "Vmax", "setting": "[1]; micelles, Wo 69", "value": "992 ± 149", "unit": "µmol/mg/min"}, {"measurement": "kcat", "setting": "[1]; micelles, Wo 69", "value": "653 ± 98", "unit": "s⁻¹"}, {"measurement": "kcat /KM", "setting": "[1]; micelles, Wo 69", "value": 18.8, "unit": "mM⁻¹ s⁻¹"}, {"measurement": "Km", "setting": "[1]; micelles, Wo 86", "value": "33.3 ± 6.7", "unit": "mM"}, {"measurement": "kcat", "setting": "[1]; micelles, Wo 86", "value": "789 ± 86", "unit": "s⁻¹"}, {"measurement": "kcat /KM", "setting": "[1]; micelles, Wo 86", "value": 23.7, "unit": "mM⁻¹ s⁻¹"}, {"measurement": "Km", "setting": "[1]; micelles, Wo 125", "value": "29.5 ± 8.3", "unit": "mM"}, {"measurement": "Vmax", "setting": "[1]; micelles, Wo 125", "value": "1.753 ± 259", "unit": "µmol/mg/min"}, {"measurement": "kcat", "setting": "[1]; micelles, Wo 125", "value": "1150 ± 170", "unit": "s⁻¹"}, {"measurement": "kcat /KM", "setting": "[1]; micelles, Wo 125", "value": 39.1, "unit": "mM⁻¹ s⁻¹"}, {"measurement": "Km", "setting": "[2]", "value": 32, "unit": "mM"}, {"measurement": "kcat", "setting": "[2]", "value": 975, "unit": "s⁻¹"}]}, {"smiles": "CCOP(=S)(OCC)Oc1ccc([N+](=O)[O-])cc1", "note": "[PARATHION, Parathion]", "values": [{"measurement": "Km", "setting": "[1]; [4]", "value": "0.35 ± 0.08", "unit": "mM"}, {"measurement": "Vmax", "setting": "[1]; [4]", "value": "2850 ± 540", "unit": "µmol/mg/min"}, {"measurement": "kcat", "setting": "[1]; [4]", "value": "1870 ± 360", "unit": "s⁻¹"}, {"measurement": "kcat /KM", "setting": "[1]; [4]", "value": "5,340 mM^-1 s^-1"}, {"measurement": "Km", "setting": "[1]; micelles, Wo 6", "value": "81 ± 16", "unit": "mM"}, {"measurement": "Vmax", "setting": "[1]; micelles, Wo 6", "value": "1.37 ± 0.15", "unit": "µmol/mg/min"}, {"measurement": "kcat", "setting": "[1]; micelles, Wo 6", "value": "0.90 ± 0.10", "unit": "s⁻¹"}, {"measurement": "kcat /KM", "setting": "[1]; micelles, Wo 6", "value": 0.011, "unit": "mM⁻¹ s⁻¹"}, {"measurement": "Vmax", "setting": "[1]; micelles, Wo 29", "value": "9.7 ± 1.4", "unit": "µmol/mg/min"}, {"measurement": "kcat", "setting": "[1]; micelles, Wo 29", "value": "6.4 ± 0.9", "unit": "s⁻¹"}, {"measurement": "kcat /KM", "setting": "[1]; micelles, Wo 29", "value": 0.054, "unit": "mM⁻¹ s⁻¹"}, {"measurement": "Vmax", "setting": "[1]; micelles, Wo 45", "value": "14.7 ± 2.4", "unit": "µmol/mg/min"}, {"measurement": "kcat", "setting": "[1]; micelles, Wo 45", "value": "9.7 ± 1.6", "unit": "s⁻¹"}, {"measurement": "kcat /KM", "setting": "[1]; micelles, Wo 45", "value": 0.074, "unit": "mM⁻¹ s⁻¹"}, {"measurement": "Vmax", "setting": "[1]; micelles, Wo 70", "value": "28 ± 17", "unit": "µmol/mg/min"}, {"measurement": "kcat", "setting": "[1]; micelles, Wo 70", "value": "18 ± 11", "unit": "s⁻¹"}, {"measurement": "kcat /KM", "setting": "[1]; micelles, Wo 70", "value": 0.082, "unit": "mM⁻¹ s⁻¹"}, {"measurement": "Vmax", "setting": "[1]; micelles, Wo 85", "value": "52 ± 28", "unit": "µmol/mg/min"}, {"measurement": "kcat", "setting": "[1]; micelles, Wo 85", "value": "34 ± 18", "unit": "s⁻¹"}, {"measurement": "kcat /KM", "setting": "[1]; micelles, Wo 85", "value": 0.082, "unit": "mM⁻¹ s⁻¹"}]}, {"smiles": "COP(=O)(OC)Oc1ccc([N+](=O)[O-])cc1", "note": "[METHYL PARAOXON, methyl paraoxon]", "values": [{"measurement": "Km", "setting": "[1]; Tris-HCl buffer", "value": 0.146, "unit": "mM"}, {"measurement": "Vmax", "setting": "[1]; Tris-HCl buffer", "value": 2293, "unit": "µmol/mg/min"}, {"measurement": "kcat", "setting": "[1]; Tris-HCl buffer", "value": 1509, "unit": "s⁻¹"}, {"measurement": "kcat /KM", "setting": "[1]; Tris-HCl buffer", "value": "10,340 mM^-1 s^-1"}, {"measurement": "Km", "setting": "[1]; micelles, Wo 5.5", "value": "17.2 ± 3.2", "unit": "mM"}, {"measurement": "Vmax", "setting": "[1]; micelles, Wo 5.5", "value": "26.5 ± 2.8", "unit": "µmol/mg/min"}, {"measurement": "kcat", "setting": "[1]; micelles, Wo 5.5", "value": 17, "unit": "s⁻¹"}, {"measurement": "kcat /KM", "setting": "[1]; micelles, Wo 5.5", "value": 1.0, "unit": "mM⁻¹ s⁻¹"}, {"measurement": "Km", "setting": "[1]; micelles, Wo 28", "value": "15.6 ± 2", "unit": "mM"}, {"measurement": "Vmax", "setting": "[1]; micelles, Wo 28", "value": "43.2 ± 2.4", "unit": "µmol/mg/min"}, {"measurement": "kcat", "setting": "[1]; micelles, Wo 28", "value": 28, "unit": "s⁻¹"}, {"measurement": "kcat /KM", "setting": "[1]; micelles, Wo 28", "value": 1.182, "unit": "mM⁻¹ s⁻¹"}, {"measurement": "Km", "setting": "[1]; micelles, Wo 46", "value": "15.3 ± 1.9", "unit": "mM"}, {"measurement": "Vmax", "setting": "[1]; micelles, Wo 46", "value": "53.1 ± 3.0", "unit": "µmol/mg/min"}, {"measurement": "kcat", "setting": "[1]; micelles, Wo 46", "value": 35, "unit": "s⁻¹"}, {"measurement": "kcat /KM", "setting": "[1]; micelles, Wo 46", "value": 2.28, "unit": "mM⁻¹ s⁻¹"}, {"measurement": "Km", "setting": "[1]; micelles, Wo 66", "value": "37.2 ± 11", "unit": "mM"}, {"measurement": "Vmax", "setting": "[1]; micelles, Wo 66", "value": "192 ± 37", "unit": "µmol/mg/min"}, {"measurement": "kcat", "setting": "[1]; micelles, Wo 66", "value": 126, "unit": "s⁻¹"}, {"measurement": "kcat /KM", "setting": "[1]; micelles, Wo 66", "value": 3.35, "unit": "mM⁻¹ s⁻¹"}, {"measurement": "Km", "setting": "[1]; micelles, Wo 82", "value": "32.9 ± 8.9", "unit": "mM"}, {"measurement": "Vmax", "setting": "[1]; micelles, Wo 82", "value": "225 ± 38", "unit": "µmol/mg/min"}, {"measurement": "kcat", "setting": "[1]; micelles, Wo 82", "value": 148, "unit": "s⁻¹"}, {"measurement": "kcat /KM", "setting": "[1]; micelles, Wo 82", "value": 4.5, "unit": "mM⁻¹ s⁻¹"}, {"measurement": "Km", "setting": "[1]; micelles, Wo 122", "value": "50 ± 19", "unit": "mM"}, {"measurement": "Vmax", "setting": "[1]; micelles, Wo 122", "value": "397 ± 111", "unit": "µmol/mg/min"}, {"measurement": "kcat", "setting": "[1]; micelles, Wo 122", "value": 261, "unit": "s⁻¹"}, {"measurement": "kcat /KM", "setting": "[1]; micelles, Wo 122", "value": 5.2, "unit": "mM⁻¹ s⁻¹"}]}, {"smiles": "OCCO", "note": "[ethylene glycol]", "values": [{"measurement": "effect on enzyme activity", "setting": "[3]; micelles prepared with it as a cosurfactant", "value": "enhanced enzyme activity"}]}, {"smiles": "CC(C)O", "note": "[isopropanol]", "values": [{"measurement": "effect on activity of phosphotriesterase", "setting": "[3]; in buffer", "value": "reduce the activity"}]}]}
